For data set [1], the target named is T1, V257M hFMO3 (Homo sapiens, UniProt P31513, V257M).
T1 construct: made in house; host or cells: E. coli JM109 (vector pJL2)
T1 sequence (P31513 1-532 V257M): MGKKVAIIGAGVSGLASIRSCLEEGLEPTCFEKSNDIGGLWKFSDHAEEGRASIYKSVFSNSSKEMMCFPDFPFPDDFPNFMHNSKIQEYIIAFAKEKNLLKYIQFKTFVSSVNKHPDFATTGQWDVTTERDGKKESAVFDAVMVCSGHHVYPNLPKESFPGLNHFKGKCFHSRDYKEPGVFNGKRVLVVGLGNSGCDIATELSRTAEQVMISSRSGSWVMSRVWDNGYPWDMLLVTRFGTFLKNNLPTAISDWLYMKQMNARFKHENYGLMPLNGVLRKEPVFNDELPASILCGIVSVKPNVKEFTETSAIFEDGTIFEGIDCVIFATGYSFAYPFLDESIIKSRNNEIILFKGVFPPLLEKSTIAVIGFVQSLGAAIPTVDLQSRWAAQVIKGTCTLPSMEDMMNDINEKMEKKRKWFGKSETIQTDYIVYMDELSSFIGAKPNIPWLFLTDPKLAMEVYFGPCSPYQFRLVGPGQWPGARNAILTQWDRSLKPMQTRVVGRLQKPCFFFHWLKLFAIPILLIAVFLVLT
Description: N-oxygenation kinetics with purified V257M polymorphic variant of hFMO3 (LC-MS). It counts as in vitro ADME. How it is done: (§1) Enzymatic reactions were carried out with the purified WT and V257M polymorphic variant in the presence of NADPH and increasing amounts of each substrate as reported in the experimental section. […] The kcat and Km values for V257M were approximately half of that of the wild-type (Figure 3A,B) and the kcat for the wild-type enzyme was at least twice as much of the kcat for V257M.
(§2) The enzyme and NADPH were mixed first and the reaction was initiated by the addition of substrate, preventing thermal degradation of the enzyme. […] The incubations were terminated by the addition of 0.10 mL of ice-cold methanol and 150 μL verapamil as internal standard (IS).
(§3) Prior to LC-MS analysis the reaction mixtures were filtered through a Microcon centrifugal membrane with 3 kDa cutoff (Millipore, Billercia, MA, USA). Substrates and their metabolites were separated using Agilent 1200 HPLC (Agilent Technologies Inc., Santa Clara, CA, USA) equipped with a narrow bore reversed-phase column Zorbax Eclipse XDB-C18, 2.1 × 150 mm, 3.5 μm (Agilent Technologies, Santa Clara, CA, USA) and using a binary solvent system composed of double distilled water with 0.01% formic acid (A), and acetonitrile (ACN) with 0.1% formic acid (B) at flow rate of 0.2 mL min^−1. The initial mobile phase was composed of 20% of solvent B and it was increased to 70% over a period of 3 min and kept 4 min for isocratic separations of substrate, metabolite and internal standard (IS). Finally, the organic solvent was increased to 100% in 30 s for washing the column. Before follower injection, initial mobile phase was re-established for 10 min.
(§4) For quantitative purpose, standards and samples were analysed by LC-ESI-MS/MS in MRM mode using the above-indicated parameters. […] Spectral data were processed using data analysis software of 6300 Series Ion Trap LC/MS 4.0 (Bruker Daltonik GmbH, Bremen, Germany). Metabolite formation was quantified by comparing peak area ratios (metabolite/internal standard) of four data sets of incubations for each Michaelis-Menten curve to ratios obtained from a standard curve containing known amounts of the […].

In data set [2] the target is T2, wild type hFMO3 (Homo sapiens, UniProt P31513).
T2 construct: made in house; host or cells: E. coli JM109 (vector pJL2)
T2 sequence (P31513 1-532): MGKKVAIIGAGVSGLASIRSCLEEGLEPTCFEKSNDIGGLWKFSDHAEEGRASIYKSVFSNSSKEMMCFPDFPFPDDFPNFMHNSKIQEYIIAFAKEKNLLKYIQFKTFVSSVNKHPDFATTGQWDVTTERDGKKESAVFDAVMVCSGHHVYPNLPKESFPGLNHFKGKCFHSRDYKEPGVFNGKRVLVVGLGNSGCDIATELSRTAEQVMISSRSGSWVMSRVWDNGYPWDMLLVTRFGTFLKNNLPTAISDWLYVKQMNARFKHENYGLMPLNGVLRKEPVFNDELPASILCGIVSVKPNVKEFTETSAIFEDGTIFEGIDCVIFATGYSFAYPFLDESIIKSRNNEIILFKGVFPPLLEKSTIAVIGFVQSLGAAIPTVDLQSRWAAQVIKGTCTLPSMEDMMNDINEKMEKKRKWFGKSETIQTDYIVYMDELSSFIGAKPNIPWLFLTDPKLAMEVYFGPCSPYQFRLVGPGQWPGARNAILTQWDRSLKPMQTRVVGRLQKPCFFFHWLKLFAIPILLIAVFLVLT
In words: N-oxygenation kinetics with purified wild-type hFMO3 (LC-MS). It counts as in vitro ADME. On the procedure:
as §1, §2, §3, §4

Substrate in data set [3]: Cc1cc(Nc2cc(N3CCN(C)CC3)nc(Sc3ccc(NC(=O)C4CC4)cc3)n2)[nH]n1
The data set is described as above. In kind it is in vitro ADME, human. Particulars: other: WT hFMO3, N-oxide formation, 0.17 μM enzyme, 0.5 mM NADPH, pH 7.4, 37 °C. On the procedure: as §1, §2, §3, §4

Substrate in data set [4]: CO[C@@H](C(=O)N1Cc2n[nH]c(NC(=O)c3ccc(N4CCN(C)CC4)cc3)c2C1)c1ccccc1
The description is as above. It counts as in vitro ADME, human. Particulars: other: WT hFMO3, N-oxide formation, 0.17 μM enzyme, 0.5 mM NADPH, pH 7.4, 37 °C. How it is done: as §1, §2, §3, §4

Substrate in data set [5]: Cc1cc(Nc2cc(N3CCN(C)CC3)nc(Sc3ccc(NC(=O)C4CC4)cc3)n2)[nH]n1
In words: N-oxygenation kinetics with purified V257M polymorphic variant of hFMO3 (LC-MS). Conditions: other: V257M hFMO3, N-oxide formation, 0.17 μM enzyme, 0.5 mM NADPH, pH 7.4, 37 °C. In kind it is in vitro ADME, human. How it is done:
as §1, §2, §3, §4

Substrate in data set [6]: CO[C@@H](C(=O)N1Cc2n[nH]c(NC(=O)c3ccc(N4CCN(C)CC4)cc3)c2C1)c1ccccc1
The description is as above. Conditions: other: V257M hFMO3, N-oxide formation, 0.17 μM enzyme, 0.5 mM NADPH, pH 7.4, 37 °C. In kind it is in vitro ADME, human. On the procedure: as §1, §2, §3, §4

[7] abbreviates: V257M hFMO3, N-oxide formation, pH 7.4, 37 °C.
Where [8] appears, read: V257M hFMO3, N-oxide formation, values in text.
[9] abbreviates: WT hFMO3, N-oxide formation, pH 7.4, 37 °C.

These results are taken from article PMC3588010, “Effect of Human Flavin-Containing Monooxygenase 3 Polymorphism on the Metabolism of Aurora Kinase Inhibitors” (International Journal of Molecular Sciences, 2013).

As usually defined, the kcat is the number of substrate molecules converted per active site and unit of time at saturation. For orientation: Km means the concentration of substrate that gives half-maximal velocity. As a reminder, the kcat/Km is the second-order rate constant that governs catalysis at low substrate concentration.

As to `CO[C@@H](C(=O)N1Cc2n[nH]c(NC(=O)c3ccc(N4CCN(C)CC4)cc3)c2C1)c1ccccc1` [Danusertib], the Vmax in data set [1] (setting [7]) worked out at 0.18 ± 0.01 nmol/min/mg FMO3; in data set [1] (V257M, values in text), 0.18 nmol min^−1 mg FMO3; in data set [2] (setting [9]), 0.57 ± 0.03 nmol/min/mg FMO3; in data set [2] (wild-type enzyme, values in text) it was 0.57 nmol min^−1 mg FMO3. The catalytic constant (kcat) in data set [1] (setting [8]) is 0.0533 s⁻¹; in data set [2] (setting [9]), 0.165 s⁻¹.
Consider `Cc1cc(Nc2cc(N3CCN(C)CC3)nc(Sc3ccc(NC(=O)C4CC4)cc3)n2)[nH]n1` [Tozasertib], for which the Vmax in data set [1] (setting [7]) came to 0.25 ± 0.01 nmol/min/mg FMO3; in data set [1] (V257M hFMO3, values in text) it was 248 pmol/min/mg FMO3; in data set [2] (setting [9]), 0.54 ± 0.02 nmol/min/mg FMO3; in data set [2] (wild type hFMO3, values in text) it was 536 pmol/min/mg FMO3. For the same molecule, the turnover number (kcat) came to 0.0717 s⁻¹ in data set [1] (setting [8]) and 0.155 s⁻¹ in data set [2] (setting [9]).

B1: wild type hFMO3 (Homo sapiens) (protein)
chain: MGKKVAIIGAGVSGLASIRSCLEEGLEPTCFEKSNDIGGLWKFSDHAEEGRASIYKSVFSNSSKEMMCFPDFPFPDDFPNFMHNSKIQEYIIAFAKEKNLLKYIQFKTFVSSVNKHPDFATTGQWDVTTERDGKKESAVFDAVMVCSGHHVYPNLPKESFPGLNHFKGKCFHSRDYKEPGVFNGKRVLVVGLGNSGCDIATELSRTAEQVMISSRSGSWVMSRVWDNGYPWDMLLVTRFGTFLKNNLPTAISDWLYVKQMNARFKHENYGLMPLNGVLRKEPVFNDELPASILCGIVSVKPNVKEFTETSAIFEDGTIFEGIDCVIFATGYSFAYPFLDESIIKSRNNEIILFKGVFPPLLEKSTIAVIGFVQSLGAAIPTVDLQSRWAAQVIKGTCTLPSMEDMMNDINEKMEKKRKWFGKSETIQTDYIVYMDELSSFIGAKPNIPWLFLTDPKLAMEVYFGPCSPYQFRLVGPGQWPGARNAILTQWDRSLKPMQTRVVGRLQKPCFFFHWLKLFAIPILLIAVFLVLT
notes: made in house; host or cells: E. coli JM109 (vector pJL2)
Regarding B1, in data set [3], the Km worked out at 23.8 ± 3.4 µM, the kcat was 0.155 ± 0.005 s⁻¹ and the kcat/Km is 6500 ± 1000 M⁻¹ s⁻¹. In addition, in data set [4], the Km amounted to 57.3 ± 8.3 µM, the kcat was 0.165 ± 0.01 s⁻¹ and the kcat/Km stood at 2830 ± 500 M⁻¹ s⁻¹.

B2: V257M hFMO3 (Homo sapiens; V257M) (protein)
chain: MGKKVAIIGAGVSGLASIRSCLEEGLEPTCFEKSNDIGGLWKFSDHAEEGRASIYKSVFSNSSKEMMCFPDFPFPDDFPNFMHNSKIQEYIIAFAKEKNLLKYIQFKTFVSSVNKHPDFATTGQWDVTTERDGKKESAVFDAVMVCSGHHVYPNLPKESFPGLNHFKGKCFHSRDYKEPGVFNGKRVLVVGLGNSGCDIATELSRTAEQVMISSRSGSWVMSRVWDNGYPWDMLLVTRFGTFLKNNLPTAISDWLYMKQMNARFKHENYGLMPLNGVLRKEPVFNDELPASILCGIVSVKPNVKEFTETSAIFEDGTIFEGIDCVIFATGYSFAYPFLDESIIKSRNNEIILFKGVFPPLLEKSTIAVIGFVQSLGAAIPTVDLQSRWAAQVIKGTCTLPSMEDMMNDINEKMEKKRKWFGKSETIQTDYIVYMDELSSFIGAKPNIPWLFLTDPKLAMEVYFGPCSPYQFRLVGPGQWPGARNAILTQWDRSLKPMQTRVVGRLQKPCFFFHWLKLFAIPILLIAVFLVLT
notes: as for B1
Take B2: in data set [5], the Km was determined as 12.9 ± 1.3 µM, the kcat was found to be 0.0717 s⁻¹ and the kcat/Km was found to be 5500 ± 667 M⁻¹ s⁻¹. In data set [6], the Km was found to be 60.1 ± 11.4 µM, the kcat was 0.0533 s⁻¹ and the kcat/Km worked out at 833 ± 167 M⁻¹ s⁻¹.
